Source: PubChem BioAssay (NCI)
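Compound exposure: 48 hours, 5 concentrations, 96-well plates. GI50 = concentration required for 50% inhibition of growth. TGI denotes the concentration required for complete inhibition of growth.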

Columns and labels:
Assay in all cases: NCI tumour cell line growth inhibition, 48 h
U251 CNS = tested on: U251 CNS
IGROV1 ovarian = tested on: IGROV1 ovarian
SK-OV-3 ovarian = tested on: SK-OV-3 ovarian
NCI-H23 lung = tested on: NCI-H23 lung
786-0 renal = tested on: 786-0 renal
MALME-3M melanoma = tested on: MALME-3M melanoma
CAKI-1 renal = tested on: CAKI-1 renal
DU-145 prostate = tested on: DU-145 prostate
BT-549 breast = tested on: BT-549 breast
MDA-MB-231 breast = tested on: MDA-MB-231 breast

| Structure (SMILES) | TGI (U251 CNS) [µM] | TGI (IGROV1 ovarian) [µM] | TGI (SK-OV-3 ovarian) [µM] | TGI (NCI-H23 lung) [µM] | TGI (786-0 renal) [µM] | TGI (MALME-3M melanoma) [µM] | TGI (CAKI-1 renal) [µM] | TGI (DU-145 prostate) [µM] | TGI (BT-549 breast) [µM] | TGI (MDA-MB-231 breast) [µM] | GI50 (DU-145 prostate) [µM] | GI50 (U251 CNS) [µM] | GI50 (CAKI-1 renal) [µM] | GI50 (IGROV1 ovarian) [µM] | GI50 (SK-OV-3 ovarian) [µM] | GI50 (MDA-MB-231 breast) [µM] | GI50 (NCI-H23 lung) [µM] | GI50 (786-0 renal) [µM] | GI50 (MALME-3M melanoma) [µM] | GI50 (BT-549 breast) [µM] |
| --- | --- | --- | --- | --- | --- | --- | --- | --- | --- | --- | --- | --- | --- | --- | --- | --- | --- | --- | --- | --- |
| CCCCCCCCCCCCCCC1OC(=O)c2ccccc21 (stereo not drawn) | > 100 | > 100 | > 100 | > 100 | > 100 | > 100 | – | – | – | – | – | – | – | – | – | – | – | – | – | – |
| O=C1NC(=O)C2C(=O)NC(=O)C1C2(c1ccccc1)c1ccc(Cl)cc1 (stereo not drawn) | – | > 100 | > 100 | > 100 | > 100 | > 100 | > 100 | – | – | – | – | – | – | – | – | – | – | – | – | – |
| CN(C)CCNC(=O)c1cccc2nc3c(Cl)cccc3nc12 | 30.5 | > 86.4 | > 31.6 | 20.8 | > 49.1 | 8.05 | > 70.8 | – | – | – | – | – | – | – | – | – | – | – | – | – |
| CN(C)c1ccc2c(c1)oc(=O)c1ccccc12 | 24.3 | 36.7 | – | 22.4 | 26.5 | 24.5 | 26.1 | 23 | 17.1 | 34.4 | – | – | – | – | – | – | – | – | – | – |
| COC(=O)C(CC(=O)c1cc2c(cc1I)OCO2)Cc1cc(OC)c(OC)c(OC)c1I (stereo not drawn) | > 100 | > 100 | > 100 | > 100 | > 100 | > 100 | > 100 | – | – | – | – | – | – | – | – | – | – | – | – | – |
| Cc1c(N2C(=O)/C(=C\c3ccccc3O)N=C2c2ccccc2)c(=O)n(-c2ccccc2)n1C | > 100 | > 100 | > 100 | > 100 | > 100 | > 100 | 76.9 | > 100 | – | > 100 | 87.4 | 40.2 | 15.6 | 23.8 | 57.3 | 41.9 | > 100 | 29.9 | 49.1 | – |
| CC1CCC[P+](Cc2ccccc2)(c2ccccc2)CC1 (stereo not drawn) | > 100 | > 100 | > 100 | > 100 | > 100 | 42.6 | – | – | – | – | – | – | – | – | – | – | – | – | – | – |
| COC(=O)c1c(OC)cccc1C(=O)O | > 100 | > 100 | > 100 | > 100 | > 100 | > 100 | > 100 | – | – | – | – | – | – | – | – | – | – | – | – | – |
| COc1nc2c(cc1S(=O)(=O)c1ccccc1)CCc1c-2cnn1-c1ccccc1Cl | > 100 | > 100 | > 100 | – | > 100 | – | > 100 | > 100 | > 100 | > 100 | > 100 | 5.94 | 5.2 | > 100 | > 100 | 5.16 | – | 7.28 | – | 3.49 |
| O=C1Oc2cc3c(c4cccc1c24)OCN(c1ccc(Cl)cc1)C3 | > 79.5 | > 100 | > 100 | > 100 | 34.5 | > 60.7 | > 100 | – | – | – | – | – | – | – | – | – | – | – | – | – |
| CCOC(=O)CCCO | > 100 | > 100 | > 100 | > 100 | > 100 | > 100 | – | – | – | – | – | – | – | – | – | – | – | – | – | – |
| CCCCn1/c(=N/C(=S)N(C)C)ss/c1=N\C(=S)N(C)C | > 100 | > 100 | > 100 | > 100 | > 100 | > 100 | > 100 | – | – | – | – | – | – | – | – | – | – | – | – | – |
| O=C(/C=C/c1cccs1)c1ccc(Cl)cc1 | > 100 | > 100 | > 100 | > 100 | > 100 | > 100 | – | > 100 | – | > 100 | – | – | – | – | – | – | – | – | – | – |
| COc1ccc(N=Cc2cc(OC)c(OC)c(OC)c2)cc1 | > 100 | > 100 | > 100 | > 100 | > 100 | > 100 | > 100 | – | – | – | – | – | > 100 | – | – | – | – | – | – | – |
| C#CC(C)(C)Oc1cc(O)c2c(=O)c3ccccc3n(C)c2c1 | > 100 | > 100 | > 100 | > 100 | > 100 | > 100 | > 100 | – | – | – | – | – | – | – | – | – | – | – | – | – |
| O=C1/C(=C/c2ccccc2)CN(C(=O)Oc2ccc(Cl)cc2)C/C1=C\c1ccccc1 | 2.97 | 10.2 | 20.5 | 11.1 | 3.96 | 26.7 | – | – | – | – | – | – | – | – | – | – | – | – | – | – |
| CC(=O)OCCc1cccnc1/C=N/O | > 100 | > 100 | > 100 | > 100 | > 100 | > 100 | > 100 | – | – | – | – | – | – | – | – | – | – | – | – | – |
| Cc1cc(C)nc(NS(=O)(=O)c2ccc(NC(=O)c3cccc4c(=O)c5ccccc5[nH]c34)cc2)n1 | 32.4 | 68.1 | 17.1 | 33.4 | 36.8 | 33.8 | > 100 | – | – | – | – | – | – | – | – | – | – | – | – | – |
| O=C(O)c1cc(S(=O)(=O)N=NC=C2c3ccccc3N(O)c3ccccc32)ccc1O | > 100 | 83.1 | 92.2 | 53.3 | 27.7 | 50.3 | > 100 | – | – | – | – | – | – | – | – | – | – | – | – | – |
| CCN1CCN(c2nc(NCCNc3ccnc4cc(Cl)ccc34)c3ccccc3n2)CC1 | 10.1 | 4.69 | 4.71 | 10.7 | 2.44 | 3.58 | – | 9.14 | 5.39 | 2.88 | 2.17 | 2.28 | – | 1.62 | 2.13 | 1.28 | 2.77 | 1.03 | 1.95 | 2.01 |
| C[Si](C)(C)c1ccc(CC2(Cc3ccc([Si](C)(C)C)cc3)CCNC2)cc1 | 3.02 | 7.12 | 3.8 | 3.47 | 3.38 | 11.6 | 5.29 | – | – | – | – | – | – | – | – | – | – | – | – | – |
| Clc1cccc(NC=Nc2ccc(-c3nc4ccccc4s3)cc2)c1 | 15.4 | 24.3 | > 50 | 48.1 | 18.6 | – | > 50 | 38.8 | > 50 | 23.6 | 16.4 | 7.85 | 17.8 | 11.3 | 31.7 | 9.72 | 16.1 | 10.6 | – | 23.3 |
| COc1cc2c(cc1OC)C1C=NC(C(=O)O)(C2)c2ccccc21 (stereo not drawn) | > 100 | > 100 | > 100 | > 100 | > 100 | > 100 | > 100 | – | – | – | – | – | – | – | – | – | – | – | – | – |
| O=C1c2ccccc2-c2c1c1cc3c(cc1c(=O)n2CCCCl)OCO3 | 67.4 | – | > 100 | 87.3 | 45.7 | – | 82.4 | > 100 | > 100 | 75.3 | > 100 | 22.8 | 20.4 | – | > 100 | 24.7 | 21.5 | 18.4 | – | 45.9 |
